Source: US9616062B2, “Cyclin dependent kinase inhibitors and methods of use” (priority 2009, dated 2017)

Tests used:
[1] = system: human peripheral blood T cells (memory and naive); experiment: Human peripheral blood T cell proliferation after PMA and ionomycin stimulation (BrdU, Ki-67 FACS); format: cell-based
Description: FIG. 13: CDK4/6 inhibitors suppress T cell proliferation upon stimulation through TCR pathway in both memory and naïve compartments. Human peripheral blood T cells were purified using Automacs by CD3 positive selection before being treated with CDK4/6 inhibitors and stimulated with PMA and Inomycin for 48 hrs. The proliferation of memory […] T cells after stimulation by PMA and Inomycin was measured by FACS staining of BrdU+ or Ki-67+ cells. The percentages of inhibition are shown, which indicates more inhibition of memory compartment than naïve compartment.
FIG. 14: CDK4/6 inhibitors suppress T cell proliferation upon stimulation through TCR pathway. […] Proliferation determined by BrdU or Ki67 incorporation. […]
FIG. 15: Changes of CD4 T cell composition after CDK4/6 inhibition. […] The memory and terminal differentiated T cell fractions as assessed by BrdU incorporation are reduced after CDK4/6 inhibition. […]
FIG. 16: Changes of CD4 T cell composition after CDK4/6 inhibition. […] The memory and terminal differentiated T cell fractions as assessed by Ki67 staining are reduced after CDK4/6 inhibition. […]
Similar results were seen using human lymphocytes. […] In FIG. 15, the effects of CDK4/6 inhibition on specific Tcell fractions is assessed, with and without TCR, showing CDK4/6 inhibition has a greater effect on proliferation of memory cells relative to naïve cells. […]

[2] = system: C3-TAg mice (RB-deficient breast cancer); experiment: C3-Tag transgenic mouse model of basal-like breast cancer, tumor volume; format: in vivo; details: daily administration, 100 mg/kg daily in standard chow
Description: FIG. 9: CDK4/6 inhibition potentiates the efficacy of chemotherapy in mouse model of RB-deficient breast cancer. […] Data are % change in tumor volume and represents the mean of at least 15 animals per cohort +/−SEM
FIG. 10: CDK4/6 inhibition potentiates the efficacy of chemotherapy in mouse model of RB-deficient breast cancer. Mice were treated every 7 days for three weeks with carboplatin (90 mg/kg IP) alone (darkly shaded squares) or in combination with PD0332991 (150 mg/kg PO; lightly shaded squares). Data are % change in tumor volume and represents the mean of at least 15 animals per cohort +/−SEM.
The C3-TAg mice are a model of basal-like breast cancer. […] The MMTV-c-neu model expresses c-neu (the mouse ortholog of human HER2) driven by the mouse mammary tumor virus (MMTV) promoter and is a model of HER2+ breast cancer. When tumors were noted to be ˜0.2 cm^2 in size, animals were treated as described and tumor response assessed by daily caliper measurements.
The effects of CDK4/6 inhibition in the C3-Tag transgenic mouse model of basal-like breast cancer were also evaluated. […] Tumor volume was measured by caliper weekly. Tumor volume was calculated using the following formula: Volume=[(width)^2×length]/2. […] Treatments were administered on days 0, 7 and 14 and tumor volumes were measured weekly, until the mice died or were euthanized due to toxicity or tumor burden.

**Q.** `CC(=O)c1c(C)c2cnc(Nc3ccc(N4CCNCC4)cn3)nc2n(C2CCCC2)c1=O` [PD0332991, 6-acetyl-8-cyclopentyl-5-methyl-2-(5-piperazin-1-yl-pyridin-2-ylamino)-8H-pyrido-[2,3-d]-pyrimidin-7-one] was tested. Which “proliferation of memory vs naive T cells (BrdU incorporation, Ki67 expression)” value [1] did it give?
**A.** Its value is “more significant decrease in homeostatic proliferation of memory T cells than naive T cells”.

**Q.** What about the “tumor growth at day 21” value [2] of the same molecule?
**A.** Its value is “no effect on tumor growth”.
